Each molecule was assayed against T1, hTRPC4 (Homo sapiens, UniProt Q9UBN4) (assay: Whole-cell patch clamp, inward current (Table B)). Details: IC50 estimated by testing at 5 μM and 500 nM, all batches, read-out: hTRPC4 Patch Inwd (nM) (All Batches).
T1 sequence (Q9UBN4 1-977): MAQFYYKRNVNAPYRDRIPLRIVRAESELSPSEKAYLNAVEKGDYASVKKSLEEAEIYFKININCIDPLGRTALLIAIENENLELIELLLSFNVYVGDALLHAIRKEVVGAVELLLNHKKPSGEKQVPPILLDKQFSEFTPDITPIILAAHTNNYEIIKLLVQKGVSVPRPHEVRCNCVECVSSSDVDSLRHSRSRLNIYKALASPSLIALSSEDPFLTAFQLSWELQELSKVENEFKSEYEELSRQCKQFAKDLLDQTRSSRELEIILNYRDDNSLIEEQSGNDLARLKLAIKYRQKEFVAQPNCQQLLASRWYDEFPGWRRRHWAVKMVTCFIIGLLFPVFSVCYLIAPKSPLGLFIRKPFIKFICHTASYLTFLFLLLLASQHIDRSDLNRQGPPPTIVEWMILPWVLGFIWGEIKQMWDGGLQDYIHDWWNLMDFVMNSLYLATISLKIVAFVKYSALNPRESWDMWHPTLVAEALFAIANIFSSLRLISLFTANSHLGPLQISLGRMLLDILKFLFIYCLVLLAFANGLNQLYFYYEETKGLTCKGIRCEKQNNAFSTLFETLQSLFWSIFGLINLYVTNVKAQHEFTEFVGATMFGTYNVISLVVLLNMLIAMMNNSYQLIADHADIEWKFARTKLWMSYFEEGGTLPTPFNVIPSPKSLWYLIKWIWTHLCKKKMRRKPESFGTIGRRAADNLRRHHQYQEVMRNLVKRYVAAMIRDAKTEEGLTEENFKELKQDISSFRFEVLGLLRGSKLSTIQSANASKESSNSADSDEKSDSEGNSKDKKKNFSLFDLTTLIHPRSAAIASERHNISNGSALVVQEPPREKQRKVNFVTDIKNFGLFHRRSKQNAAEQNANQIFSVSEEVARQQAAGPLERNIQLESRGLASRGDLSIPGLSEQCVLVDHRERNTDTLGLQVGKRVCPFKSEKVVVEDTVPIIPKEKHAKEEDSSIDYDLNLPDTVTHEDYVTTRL
Assay type: cell-based
Text: Patch clamp experiments permit the detection of currents through the TRPC5 channel in the cell line described above. In normal whole-cell patch clamp recordings, a glass electrode is brought into contact with a single cell and a high-resistance (gigaohm) seal is established with the cell membrane. The membrane is then ruptured to achieve the whole-cell configuration, permitting control of the voltage of the cell membrane and measurement of currents flowing across the membrane using the amplifier attached to the electrode and resulting in the replacement of cytoplasm with the pipette solution. A perfusion system permits control of the extracellular solution, including the addition of blockers and activators of the current.
TRPC5 cells were induced 20-48 hours, removed from growth plates, and replated at low density (to attain good single-cell physical separation) on glass coverslips for measurement. In some cases, cells were grown in low density overnight on glass coverslips. Patch clamp recordings were made in the whole-cell mode with a holding potential of −40 mV. Every 5 seconds, a voltage ramp was applied from −120 to +100 mV, 400 ms in duration. Currents elicited were quantified at −80 mV and +80 mV. […] The external solution consisted of 150 mM NaCl, 4.5 mM KCl, 1 mM MgCl2, 2 mM CaCl2), 10 mM HEPES, 10 mM glucose, 1 mM EGTA, pH 7.4. […] Potential blockers were tested for ability to block both inward and outward currents in the continued presence of LaCl3.
“F” refers to agonist compounds. “ND” refers to compounds wherein the IC50 was not determined.

| Compound | IC50 |
| --- | --- |
| Cn1c(=O)n(CCCO)c(=O)c2c1nc(Oc1cccc(OC(F)(F)F)c1)n2Cc1ccc(Cl)cc1 [Example 30] | < 100 nM |
| CCCOc1nc2c(c(=O)n(CCCO)c(=O)n2C)n1Cc1ccc(Cl)cc1 [Example 82] | < 100 nM |
| CCn1c(=O)n(CCCO)c(=O)c2c1nc(Oc1cccc(OC(F)(F)F)c1)n2Cc1ccccc1 [Example 145] | < 100 nM |
| Cc1cnc(Cn2c(Oc3cccc(OC(F)(F)F)c3)nc3c2c(=O)n(CCCO)c(=O)n3C)s1 [Example 161] | < 100 nM |
| CC(C)c1ccccc1-c1nc2c(c(=O)n(CCCO)c(=O)n2C)n1Cc1ccccc1 [Example 485] | < 100 nM |
| CC(C)CCn1c(Oc2cccc(OC(F)(F)F)c2)nc2c1c(=O)n(CCCO)c(=O)n2C [Example 587] | < 100 nM |

— US11958854B2 (Hydra Biosciences, LLC, priority 2013, dated 2024)
